This note sets out measurements from publication PMC6145916, “Interaction of mitochondrial fission factor with dynamin related protein 1 governs physiological mitochondrial function in vivo” (Scientific Reports, 2018).

The subject of test [1] is E17 primary cortical neurons. Kind of test: Mitochondrial morphology (Tom20), primary cortical neurons. To be noted: 1 µM P259, two-hour treatment; n = 3, 10 images each. It is filed as cell-based, rat. How it is done:
Bottom, quantification of the form factor (degree of branching) and aspect ratio (major/minor axis length). At least 10,000 mitochondrial fragments were analyzed for each condition. Mitochondrial reactive oxygen species production (MitoSox Red) (b) and membrane potential (TMRM) (c) after overnight treatment with indicated concentrations of peptide (n = 3, with 3 replicates). […] Overlay of live microscopy imaging at time 0 (green) and 150 (red) seconds. […] An estimation of the % mobile mitochondria from the Pearson coefficient of each set of images. Data are mean ± s.e.
Human neuroblastoma SH-SY5Y cells purchased from ATCC were cultured in a 50/50 mixture of […]
using SH-SY5Y cells were carried out in the same growth medium with the exception of using […]
Wild-type and MFF knockout mouse embryonic fibroblast (MEF) cells were generously provided by Professor David Chan. […]
an NCBI protein blast of the P259 sequence ([…]) was performed across the human genome database and the top 75 gene query hits were recorded.7 The orthologs of each available gene were obtained from the Ensembl database.8 Of the resulting 75 human gene hits, 37 had […]
(§1) The effect of peptides on GTPase activity of Drp1 was measured by incubating recombinant Drp1 […]
(§2) for 1 hour at 37 °C. GTPase activity was measured using a colorimetric GTPase assay kit (Novus Biologicals, CO, USA) as instructed by the manufacturer. […]

Test [2] concerns fission and fusion proteins. Kind of test: Expression of fission and fusion proteins, mitochondrial content and mitophagy in brain of wild-type mice. It is filed as in vivo, mouse. The settings on record: 3 mg/Kg/day, subcutaneous osmotic pump, 8 weeks, WT mice. How it is done:
Five-week old R6/2 HD mice and their wild-type littermates (a total of 60 mice) were implanted subcutaneously with a 28-d Alzet osmotic pump with either P259-TAT or TAT control peptide (15 mice per group) to be delivered continuously at a rate of 3 mg/Kg/day, as previously described. All mice were implanted twice for a total of an 8-week treatment. 20 of the WT mice were implanted 3 times for a total of a 12-week treatment at 3 mg/Kg/day. All the experiments were in accordance with protocols approved by the Institutional Animal Care and Use Committee of Stanford University and were performed based on the National Institutes of Health Guide for the Care and Use of Laboratory Animals. All methods were carried out in accordance with the relevant guidelines and regulations. […]
membrane in brains of wild-type mice, while not affecting expression levels of other fission and fusion machinery proteins. Total lysate (a,c) and mitochondrial fraction (b) from brain […]
Represented western blots are cropped from full blots shown in the Expanded Western Blots section of the Supplementary Information. […]
Supplementary Figure 4. Principal component analysis of behaviors from wild-type mice treated with P259. a. The top 20% of behaviors collected from wild-type mice treated with 3 […]
ANOVA F- and mutual information scores for each behavior (week designation corresponds to mouse age when the behavior was observed). b. The eigenvector of the first principal component, representing 42% of the variation of the data. […]
finally washed three times with RIPA buffer. Finally, beads were resuspended in 20 µL of Laemmli […]
as §1, §2

A further test relates to SH-SY5Y cells. Briefly: Oxygen consumption rate, SH-SY5Y. It is filed as cell-based, human. The settings on record: overnight treatment, XFe24 analyzer.

Where no end group is shown, it is not given here.

With “YGRKKRRQRRRGSGIIQLPEIVVV-NH2 (C-terminus assumed) [P259]”, in test [1], the mitochondrial morphology result was “more elongated and branched mitochondria”. For the same substance, in test [2], the “expression levels of both fission and fusion proteins” value is “no effect”; the mitophagy result is reported as “no effect”; the overall mitochondrial content result was “no effect”. For the same substance, the “electron flux (electron transport chain flux)” value in the test on SH-SY5Y cells (4 µM (Fig. 2f), n = 3, with at least 3 replicates) is reported as “dose-dependent decline”. For the same substance, in the test with SH-SY5Y cells (indicated concentrations, 3 independent experiments), the “basal oxygen consumption rate” value is “dose-dependent decline”.
